Measured values reported in patent publication US5807878A, “Tetrasubstituted imidazoles” (Uclaf; Roussel, priority 1994, dated 1998).
Read-outs that look alike come from different tables or passages of the source.

Experiments:
[1] = target: T1, AT2 receptor of angiotensin II (Oryctolagus cuniculus, UniProt G1T351); test: Test on the AT2 receptor of angiotensin II (displacement of 125I angiotensin II, rabbit uterus membranes); format: binding; settings: rabbit uterus membranes (estradiol pre-treated), 10 mM dithiothreitol preincubation, 25° C., 150 minutes, pH 7.4
T1 construct: A fresh membrane preparation obtained from rabbit's uterus is used; from tissue; host or cells: rabbit uterus membranes (estradiol-pretreated, homogenate preincubated with 10 mM dithiothreitol)
T1 sequence (G1T351 1-363): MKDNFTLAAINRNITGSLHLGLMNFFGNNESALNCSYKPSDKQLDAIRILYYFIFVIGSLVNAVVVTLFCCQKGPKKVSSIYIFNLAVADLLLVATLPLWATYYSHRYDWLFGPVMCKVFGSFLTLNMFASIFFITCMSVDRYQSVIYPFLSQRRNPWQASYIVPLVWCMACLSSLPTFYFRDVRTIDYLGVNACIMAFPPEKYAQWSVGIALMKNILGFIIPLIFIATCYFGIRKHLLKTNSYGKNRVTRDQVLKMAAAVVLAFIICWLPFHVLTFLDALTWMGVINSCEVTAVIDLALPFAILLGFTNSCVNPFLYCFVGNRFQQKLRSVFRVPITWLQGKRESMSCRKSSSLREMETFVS
Experimental: 2) Test on the AT2 receptor of angiotensin II
A fresh membrane preparation obtained from rabbit's uterus is used, pre-treated 4 days beforehand with 50 ug of estradiol administered by percutaneous route. The tissue is ground up in a polytron in a 50 mM Tris buffer pH 7.4 and the grinding is followed by 3 centrifugations at 30,000 g for 15 minutes with intermediate take up of the pellets in the Tris buffer pH 7.4.
The last pellets are suspended in an incubation buffer (20 mM Tris, 135 mM NaCl, 10 mM KCl, 5 mM glucose, 10 mM MgCl2 6H2 O), 0.3 mM PMSF, 0.1 mM bacitracin, 0.1 o/oo lysozyme, pH 7.4).
The homogenate obtained is preincubated for 20 minutes at 25° C. in the presence of 10 mM dithiothreitol, then brought back to 0°-4° C.
(§1) 1 ml aliquoted fractions are distributed in glass tubes and ^125 I angiotensin II (25,000 DPM/tube) and the product to be studied are added. The product is first tested at 3×10^-5 M three times. When the tested product displaces more than 50% of the radioactivity specifically bound to the receptor, it is tested again according to a range of 7 concentrations in order to determine the concentration which inhibits by 50% the radioactivity specifically bound to the receptor. In this way the 50% inhibitory concentration is determined.
(§2) The specific bond is determined by the addition of EXP 655 (=PD 123-177 from Warner-Lambert) at 10^-5 M (in triplicate). After incubation at 25° C. for 150 minutes, placing in a water bath at 0° C. for 5 minutes, filteration under vacuum and rinsing with Tris buffer pH 7.4, the radioactivity is counted in the presence of a scintillating solid.
(§3) The result is expressed directly as the 50% inhibitory concentration (IC50), that is to say as the concentration of product studied, expressed in nM, necessary to displace 50% of the specific radioactivity fixed to the receptor studied.

[2] = target: T2, AT1 receptor of angiotensin II (Rattus norvegicus, UniProt P25095); test: Test on the AT1 receptor of angiotensin II (displacement of 125I angiotensin II, rat liver membranes); format: binding; settings: 25° C., 150 minutes, pH 7.4
T2 construct: A fresh membrane preparation obtained from rat's liver is used; from tissue; host or cells: rat liver membranes
T2 sequence (P25095 1-359): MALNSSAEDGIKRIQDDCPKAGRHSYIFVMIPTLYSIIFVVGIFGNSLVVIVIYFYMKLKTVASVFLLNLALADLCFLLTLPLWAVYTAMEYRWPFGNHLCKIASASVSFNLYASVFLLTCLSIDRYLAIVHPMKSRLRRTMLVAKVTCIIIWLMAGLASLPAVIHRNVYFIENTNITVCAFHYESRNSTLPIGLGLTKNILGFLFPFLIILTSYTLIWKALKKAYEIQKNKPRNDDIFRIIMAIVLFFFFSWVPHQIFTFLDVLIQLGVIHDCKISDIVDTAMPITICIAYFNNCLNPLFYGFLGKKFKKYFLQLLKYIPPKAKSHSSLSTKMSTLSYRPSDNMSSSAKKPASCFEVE
Experimental: 1--Test on the AT1 receptor of angiotensin II
A fresh membrane preparation obtained from rat's liver is used. The tissue is ground up in a polytron in a 50 mM Tris buffer pH 7.4, the grinding is followed by 3 centrifugations at 30,000 g for 15 minutes with intermediate take up of the pellets in the Tris buffer pH 7.4.
The last pellets are suspended in an incubation buffer (20 mM Tris, 135 mM NaCl, 10 mM KCl, 5 mM glucose, 135 mM MgCl2, 0.3 mM PMSF, 0.1 mM bacitracin, 0.1% lysozyme).
as §1, with “(The” for “The”, “times).” for “times.”, “determined).” for “determined.”
as §2, with “non-specific” for “specific”, “the product of Example 94 of the European Patent 0,253,310,” for “EXP 655 (=PD 123-177 from Warner-Lambert)”, “(three times).” for “(in triplicate).”
as §3

angiotensin II = test: Test for antagonistic activity of angiotensin II in the demedullated rat; format: in vivo, rat (male Sprague Dawley); settings: angiotensin II 0.75 micrograms/kg, read-out: ID50 (50% inhibitory dose of the pressure effect of angiotensin II)
[3] = IV, injected 5 minutes before angiotensin II

IC50 [1] [nM]	IC50 [2] [nM]	SMILES	ED50 (angiotensin II; [3]) [mg/kg]	ED50 (angiotensin II; PO) [mg/kg]
38	0.18	CCCCc1nc(SC)c(C(=O)C(=O)O)n1Cc1ccc(-c2ccccc2S(=O)(=O)NC(=O)NCc2ccccc2)cc1 [Example 10, 2-butyl 4-(methylthio) alpha oxo 1-((2'-(((((phenylmethyl)amino)carbonyl)amino)sulphonyl) (1,1'-biphenyl) 4-yl)methyl) 1-H-imidazole 5-acetic acid]		
83	0.2	CCCCc1nc(SC)c(C(=O)CC(=O)OCC)n1Cc1ccc(-c2ccccc2S(=O)(=O)NC(=O)NCCC)cc1 [Example 12]		
15	0.3	CCCCc1nc(SC)c(C(=O)C[S+](C)[O-])n1Cc1ccc(-c2ccccc2S(=O)(=O)NC(=O)NCc2ccccc2)cc1 (stereo not drawn) [Example 9, 4'-((2-butyl 5-(2-(methylsulphinyl)acetyl) 4-(methylthio) 1H-imidazol 1-yl)methyl) N-(((phenylmethyl)amino)carbonyl) (1,1'-biphenyl) 2-sulphonamide]	0.06	0.7
53	0.6	CCCCc1nc(SC)c(C(=O)C(=O)NCc2ccccc2)n1Cc1ccc(-c2ccccc2S(=O)(=O)NC(=O)NCc2ccccc2)cc1 [Example 11, 2-butyl 4-(methylthio) alpha oxo N-(phenylmethyl) 1-((2'-(((((phenylmethyl)amino)carbonyl)amino)sulphonyl) (1,1'-biphenyl) 4-yl)methyl) 1-H-imidazole 5-acetamide]		
2.5	0.4	CCCc1nc(SC)c(C(=O)C[S+]([O-])c2ccccc2)n1Cc1ccc(-c2ccccc2S(=O)(=O)NC(=O)NCC2CCCC2)cc1 (racemic) [Example 46, (±) N-(((cyclopentylmethyl)amino)carbonyl) 4'-((4-(methylthio) 5-((phenylsulphinyl)acetyl) 2-propyl 1H-imidazol 1-yl)methyl) (1,1'-biphenyl) 2-sulphonamide]		
6.8	0.7	CCCCc1nc(SC)c(C(=O)C(=O)O)n1Cc1ccc(-c2ccccc2S(=O)(=O)NC(=O)NCC2CCCCC2)cc1 [Example 7, 2-butyl 1-((2'-(((((cyclohexylmethyl)amino)carbonyl)amino)sulphonyl) (1,1'-biphenyl) 4-yl)methyl) 4-methylthio alpha oxo-1H-imidazole 5-acetic acid]		
1	0.08	CCCCc1nc(SC)c(C(=O)CC(=O)OCC)n1Cc1ccc(-c2ccccc2S(=O)(=O)NC(=O)NCc2ccccc2)cc1 [Example 21, ethyl 2-butyl 4-(methylthio) beta-oxo-1-((2'-(((((phenylmethyl)amino)carbonyl)amino)sulphonyl) (1,1'-biphenyl) 4-yl)methyl) 1H-imidazole 5-propanoate]	0.08	
2.2	0.05	CCCc1nc(SC)c(C(=O)C[S+]([O-])c2ccccc2)n1Cc1ccc(-c2ccccc2S(=O)(=O)NC(=O)NCc2cccs2)cc1 (stereo not drawn) [Example 34, 4'-((4-(methylthio) 5-((phenylsulphinyl)acetyl) 2-propyl 1H-imidazol-1-yl)methyl) N-(((2-thienylmethyl)amino)carbonyl) (1,1'-biphenyl) 2-sulphonamide]		
24	0.24	CCCCc1nc(SC)c(C(=O)Nc2nnn[nH]2)n1Cc1ccc(-c2ccccc2S(=O)(=O)NC(=O)NCCC)cc1 [Example 13]	0.12	
2.09	0.09	CCCc1nc(SC)c(C(=O)C[S+]([O-])c2ccccc2)n1Cc1ccc(-c2ccccc2S(=O)(=O)NC(=O)CCC2CCCC2)cc1 (racemic) [Example 47, (±) N-(4'-((4-(methylthio) 5-((phenylsulphinyl)acetyl) 2-propyl 1H-imidazol 1-yl)methyl) (1,1'-biphenyl-2yl)sulphonyl) cyclopentanepropanamide]		
2	0.2	CCCc1nc(SC)c(C(=O)Nc2nn[nH]n2)n1Cc1ccc(-c2ccccc2S(=O)(=O)NC(=O)NCc2ccccc2)cc1 [Example 15, 4-(methylthio) 1-((2'-(((((phenylmethyl)amino)carbonyl)amino)sulphonyl) (1,1'-biphenyl) 4-yl)methyl) 2-propyl N-(2H-tetrazol 5-yl) 1H-imidazole 5-carboxamide]		
0.8	0.08	CCCc1nc(SC)c(C(=O)C[S+]([O-])c2ccccc2)n1Cc1ccc(-c2ccccc2S(=O)(=O)NC(=O)NCc2ccccc2)cc1 (stereo not drawn) [Example 20, 4'-((4-(methylthio) 5-(2-(phenylsulphinyl)acetyl) 2-propyl 1H-imidazol-1-yl)methyl) N-(((phenylmethyl)amino)carbonyl) (1,1'-biphenyl) 2-sulphonamide]	0.04	0.8
